ChEMBL document CHEMBL4368923 (J Med Chem, 2019)
≈ marks a conversion by molar mass, not a printed value.

Columns and labels:
[1] = system: Human immunodeficiency virus 1; assay: Antiviral activity against HIV1 3B infected in human MT4 cells assessed as inhibition of virus-induced cytotoxicity after 5 days by MTT assay; format: functional, organism-based; settings: Human immunodeficiency virus 1, 3B, MT4, 120 h
[2] = system: Human immunodeficiency virus 1; assay: Antiviral activity against HIV1 RES056 harboring reverse transcriptase K103N/Y181C double mutant infected in human MT4 cells assessed as inhibition of virus-induced cytotoxicity after 5 days by MTT assay; format: functional, organism-based; settings: Human immunodeficiency virus 1, RES056, MT4, 120 h
[3] = Cytotoxicity against human MT4 cells assessed as reduction in cell viability after 5 days by MTT assay; format: cell-based
[4] = Selectivity index, ratio of CC50 for human MT4 cells to EC50 for HIV1 3B infected in human MT4 cells; settings: MT4 cells
[5] = Selectivity index, ratio of CC50 for human MT4 cells to EC50 for HIV1 RES056 harboring reverse transcriptase K103N/Y181C double mutant infected in human MT4 cells; settings: MT4 cells
[6] = system: Human immunodeficiency virus 1; assay: Antiviral activity against HIV1 harboring reverse transcriptase E138K mutant infected in human MT4 cells assessed as inhibition of virus-induced cytotoxicity after 5 days by MTT assay; format: functional, organism-based; settings: Human immunodeficiency virus 1, MT4, 120 h
[7] = system: Human immunodeficiency virus 1; assay: Antiviral activity against HIV1 harboring reverse transcriptase L100I mutant infected in human MT4 cells assessed as inhibition of virus-induced cytotoxicity after 5 days by MTT assay; format: functional, organism-based; settings: Human immunodeficiency virus 1, MT4, 120 h
[8] = system: Human immunodeficiency virus 1; assay: Antiviral activity against HIV1 harboring reverse transcriptase K103N mutant infected in human MT4 cells assessed as inhibition of virus-induced cytotoxicity after 5 days by MTT assay; format: functional, organism-based; settings: Human immunodeficiency virus 1, MT4, 120 h
[9] = system: Human immunodeficiency virus 1; assay: Antiviral activity against HIV1 harboring reverse transcriptase Y181C mutant infected in human MT4 cells assessed as inhibition of virus-induced cytotoxicity after 5 days by MTT assay; format: functional, organism-based; settings: Human immunodeficiency virus 1, MT4, 120 h
[10] = system: Human immunodeficiency virus 1; assay: Antiviral activity against HIV1 harboring reverse transcriptase Y188L mutant infected in human MT4 cells assessed as inhibition of virus-induced cytotoxicity after 5 days by MTT assay; format: functional, organism-based; settings: Human immunodeficiency virus 1, MT4, 120 h
[11] = system: Human immunodeficiency virus 1; assay: Antiviral activity against HIV1 harboring reverse transcriptase F227L/V106A double mutant infected in human MT4 cells assessed as inhibition of virus-induced cytotoxicity after 5 days by MTT assay; format: functional, organism-based; settings: Human immunodeficiency virus 1, MT4, 120 h
[12] = target: Human immunodeficiency virus type 1 reverse transcriptase (Human immunodeficiency virus 1, UniProt Q72547); assay: Inhibition of HIV1 reverse transcriptase p66/p51 using poly(rA)/oligo(dT)16 as template/primer measured after 40 mins by pico-green based spectrofluorometric analysis
[13] = Acute toxicity in Kunming mouse assessed as mortality at 2000 mg/kg, ig measured every day for 1 week; format: organism-based; settings: in vivo, po, 168 h
[14] = Acute toxicity in Kunming mouse assessed as lethargy at 2000 mg/kg, ig measured every day for 1 week; format: organism-based; settings: in vivo, po, 168 h
[15] = Acute toxicity in Kunming mouse assessed as clonic convulsion at 2000 mg/kg, ig measured every day for 1 week; format: organism-based; settings: in vivo, po, 168 h
[16] = Acute toxicity in Kunming mouse assessed as anorexia at 2000 mg/kg, ig measured every day for 1 week; format: organism-based; settings: in vivo, po, 168 h
[17] = Acute toxicity in Kunming mouse assessed as ruffled fur at 2000 mg/kg, ig measured every day for 1 week; format: organism-based; settings: in vivo, po, 168 h
[18] = Acute toxicity in Kunming mouse assessed as effect on body weight at 2000 mg/kg, ig measured every day for 1 week; format: organism-based; settings: in vivo, po, 168 h
[19] = Subacute toxicity in Kunming mouse assessed as mortality at 50 mg/kg, po dosed once every other day for 14 days; format: organism-based; settings: in vivo, 336 h
[20] = Subacute toxicity in Kunming mouse assessed as lethargy at 50 mg/kg, po dosed once every other day for 14 days; format: organism-based; settings: in vivo, 336 h
[21] = Subacute toxicity in Kunming mouse assessed as clonic convulsion at 50 mg/kg, po dosed once every other day for 14 days; format: organism-based; settings: in vivo, 336 h
[22] = Subacute toxicity in Kunming mouse assessed as anorexia at 50 mg/kg, po dosed once every other day for 14 days; format: organism-based; settings: in vivo, 336 h
[23] = Subacute toxicity in Kunming mouse assessed as ruffled fur at 50 mg/kg, po dosed once every other day for 14 days; format: organism-based; settings: in vivo, 336 h
[24] = Subacute toxicity in Kunming mouse assessed as effect on body weight at 50 mg/kg, po dosed once every other day for 14 days; format: organism-based; settings: in vivo, 336 h
[25] = Subacute toxicity in Kunming mouse assessed as pathological damage to heart at 50 mg/kg, po dosed once every other day for 14 days by hematoxylin and eosin staining based assay; format: organism-based; settings: in vivo, 336 h
[26] = Subacute toxicity in Kunming mouse assessed as pathological damage to liver at 50 mg/kg, po dosed once every other day for 14 days by hematoxylin and eosin staining based assay; format: organism-based; settings: in vivo, 336 h
[27] = Subacute toxicity in Kunming mouse assessed as pathological damage to spleen at 50 mg/kg, po dosed once every other day for 14 days by hematoxylin and eosin staining based assay; format: organism-based; settings: in vivo, 336 h
[28] = Subacute toxicity in Kunming mouse assessed as pathological damage to lungs at 50 mg/kg, po dosed once every other day for 14 days by hematoxylin and eosin staining based assay; format: organism-based; settings: in vivo, 336 h
[29] = Subacute toxicity in Kunming mouse assessed as pathological damage to kidneys at 50 mg/kg, po dosed once every other day for 14 days by hematoxylin and eosin staining based assay; format: organism-based; settings: in vivo, 336 h
[30] = Acute toxicity in Kunming mouse assessed as effect on animal growth at 2000 mg/kg, ig measured every day for 1 week; format: organism-based; settings: in vivo, po, 168 h
[31] = Solubility of the compound in deionized water at pH 7

Compound | EC50 ([1]; read-out: EC50) [µM] | EC50 ([1]; read-out: pEC50 (converted)) [µM] | EC50 [2] [µM] | CC50 at 120 h [3] [µM] | selectivity ratio [4] | selectivity ratio [5] | EC50 [6] [µM] | EC50 [7] [µM] | EC50 [8] [µM] | EC50 [9] [µM] | EC50 [10] [µM] | EC50 [11] [µM] | IC50 [12] [µM] | also measured
Cc1cc(C#N)cc(C)c1Oc1ccnc(Nc2ccc(CN3CCN(S(C)(=O)=O)CC3)cc2)n1 | 0.0072 | 0.00724 | > 3.43 | 3.43 | 475 | < 1 | 0.089 | 0.11 | 0.23 | 0.47 | > 5.22 | 1.03 | 0.049 | –
Cc1cc(C#N)cc(C)c1Oc1ccnc(Nc2ccc(CNC3CCN(C(=O)OC(C)(C)C)CC3)cc2)n1 | 0.19 | 0.191 | > 3.51 | 3.51 | 19 | < 1 | – | – | – | – | – | – | 0.277 | –
Cc1cc(C#N)cc(C)c1Oc1ccnc(Nc2ccc(CN3CCC(NS(N)(=O)=O)CC3)cc2)n1 | 0.092 | 0.0912 | > 3.72 | 3.72 | 40 | < 1 | 0.45 | 2.15 | 0.5 | 6.54 | > 6.97 | ≥ 6.82 | 0.152 | –
Cc1cc(/C=C/C#N)cc(C)c1Oc1ccnc(Nc2ccc(CN3CCN(S(C)(=O)=O)CC3)cc2)n1 | 0.0035 | 0.00347 | 0.79 | ≥ 173 | – | – | 0.0075 | 0.01 | 0.0036 | 0.025 | 1.62 | 0.11 | 0.067 | Activity [13]: Non-Toxic; Activity [14]: Non-Toxic; Activity [15]: Non-Toxic; Activity [16]: Non-Toxic; Activity [17]: Non-Toxic; Activity [18]: Non-Toxic; Activity [19]: Non-Toxic; Activity [20]: Non-Toxic; Activity [21]: Non-Toxic; Activity [22]: Non-Toxic; Activity [23]: Non-Toxic; Activity [24]: Non-Toxic; Activity [25]: Non-Toxic; Activity [26]: Non-Toxic; Activity [27]: Non-Toxic; Activity [28]: Non-Toxic; Activity [29]: Non-Toxic; Activity [30]: Non-Toxic
Nc1ccn([C@@H]2CS[C@H](CO)O2)c(=O)n1 [LAMIVUDINE] | 6.41 | – | – | > 87.2 | > 14 | – | – | – | – | – | – | – | – | –
Cc1cc(C)c(Oc2nc(N)nc(Nc3ccc(CN4CCOCC4)cc3)n2)c(C)c1 | 0.12 | 0.12 | > 12.9 | ≥ 12.9 | ≥ 105 | 1 | – | – | – | – | – | – | 0.442 | –
O=C1Nc2ccc(Cl)cc2[C@@](C#CC2CC2)(C(F)(F)F)O1 [EFAVIRENZ] | – | – | 0.24 | > 6.34 | – | – | 0.006 | 0.052 | 0.089 | – | 0.24 | 0.27 | – | –
Cc1cc(C#N)cc(C)c1Oc1ccnc(Nc2ccc(CN3CCOCC3)cc2)n1 | 0.011 | 0.011 | > 23 | 23 | 2040 | < 1 | 0.14 | 0.41 | 0.068 | 0.91 | 4.93 | 1.8 | 0.042 | solubility [31]: 33.4 µg/mL (≈ 80.4 µM)
Cc1cc(/C=C/C#N)cc(C)c1Oc1ccnc(Nc2ccc(CN3CCN(C(=O)OC(C)(C)C)CC3)cc2)n1 | 0.015 | 0.0151 | > 3.04 | 3.04 | 209 | < 1 | 0.13 | 0.2 | 0.02 | 0.42 | > 4.03 | 0.15 | 0.297 | –
